This is an account of results in patent US20080188542A1, “NOVEL INDOLE POLYMORPHS” (Wyeth, priority 2007, published 2008).

Converted amounts (≈) assume the structure as drawn.

A short description of the series: Solubility of polymorph A at room temperature (measurements taken at equilibrium). The series is classed as physicochemical. The note with it: for solubility: thermodynamic from solid. The procedure:
The polymorph A of [1-(4-tert-Butylbenzyl)-5-(3-methylphenyl)-1H-indol-3-yl](oxo)acetic acid of this invention can also be characterized by its solubility rate which is shown in FIG. 5. The solubility rate intrinsic dissolution was conducted in pH 7.5 phosphate buffer medium using USP apparatus 2 (paddle) at 50 rpm. The dissolution rate may be influenced by disk rotation speed and other conditions. The solubility of polymorph A of [1-(4-tert-Butylbenzyl)-5-(3- methylphenyl)-1H-indol-3-yl](oxo)acetic acid has been determined in a number of solvents and the results are listed in Table 5. The solubilities listed in Table 5 are based on measurements taken at equilibrium.

A word on the solubility: it is how much of the substance goes into solution per volume. For `Cc1cccc(-c2ccc3c(c2)c(C(=O)C(=O)O)cn3Cc2ccc(C(C)(C)C)cc2)c1` [Polymorph A, [1-(4-tert-Butylbenzyl)-5-(3-methylphenyl)1H-indol-3-yl](oxo)acetic acid], the solubility reads like this: (2% polysorbate 80/0.5% methylcellulose, aqueous with cosolvent or surfactant or cyclodextrin, 2% Polysorbate80/0.5% Methylcellulose) 1.09 mg/mL (≈ 2.56 mM); (organic solvent or mixture, Acetone) 277 mg/mL (≈ 651 mM); (organic solvent or mixture, DMSO) more than 500 mg/mL; (organic solvent or mixture, Ethanol) 12.2 mg/mL (≈ 28.8 mM); (organic solvent or mixture, Propylene Carbonate) 103 mg/mL (≈ 243 mM); (organic solvent or mixture, Propylene Glycol) 7.1 mg/mL (≈ 16.7 mM). The solubility (Deionized Water) is 0.024 mg/mL (≈ 0.0564 mM). Further, the “Solubility of Polymorph A” value is, setting by setting: (Capryol 90) 73.8 mg/g; (Cremophore EL) 290 mg/g; (Labrasol) more than 160 mg/g; (PEG 200) more than 100 mg/g; (PEG 400) more than 100 mg/g; (Phosal 53 MCT) 311 mg/g. In addition, the “Solubility of Polymorph A” value (Polysorbate 80) was more than 200 mg/g.
